Each structure is given as a SMILES string.

The target of the experiment is T1, CDK2/CycE (Homo sapiens, UniProt P24941).
T1 construct: GST; purchased ProQinase GmbH (Freiburg, Germany); host or cells: insect cells (Sf9)
The experiment can be described thus: CDK2/CycE kinase assay (TR-FRET). As to conditions: avg, read-out: CDK2 avg (IC50 [mol/l]). The class given is biochemical. The source says: CDK2/CycE -inhibitory activity of compounds of the present invention was quantified employing the CDK2/CycE TR-FRET assay as described in the following paragraphs.
Recombinant fusion proteins of GST and human CDK2 and of GST and human CycE, expressed in insect cells (Sf9) and purified by Glutathion-Sepharose affinity chromatography, were purchased from ProQinase GmbH (Freiburg, Germany). As substrate for the kinase reaction biotinylated peptide biotin-Ttds-YISPLKSPYKISEG (C-terminus in amid form) was used which can be purchased e.g. form the company JERINI peptide technologies (Berlin, Germany).
For the assay 50 nl of a 100fold concentrated solution of the test compound in DMSO was pipetted into a black low volume 384we11 microtiter plate (Greiner Bio-One, Frickenhausen, Germany), 2 μl of a solution of CDK2/CycE in aqueous assay buffer [50 mM Tris/HCl pH 8.0, 10 mM MgCl2, 1.0 mM dithiothreitol, 0.1 mM sodium ortho-vanadate, 0.01% (v/v) Nonidet-P40 (Sigma)] were added and the mixture was incubated for 15 min at 22° C. to allow pre-binding of the test compounds to the enzyme before the start of the kinase reaction. Then the kinase reaction was started by the addition of 3 μl of a solution of adenosine-tri-phosphate (ATP, 16.7 μM=>final conc. in the 5 μl assay volume is 10 μM) and substrate (1.25 μM=>final conc. in the 5 μl assay volume is 0.75 μM) in assay buffer and the resulting mixture was incubated for a reaction time of 25 min at 22° C. The concentration of CDK2/CycE was adjusted depending of the activity of the enzyme lot and was chosen appropriate to have the assay in the linear range, typical concentrations were in the range of 130 ng/ml. The reaction was stopped by the addition of 5 μl of a solution of TR-FRET detection reagents (0.2 μM streptavidine-XL665 [Cisbio Bioassays, Codolet, France] and 1 nM anti-RB(pSer807/pSer811)-antibody from BD Pharmingen [#558389] and 1.2 nM LANCE EU-W1024 labeled anti-mouse IgG antibody [Perkin-Elmer, product no. AD0077, as an alternative a Terbium-cryptate-labeled anti-mouse IgG antibody from Cisbio Bioassays can be used]) in an aqueous EDTA-solution (100 mM EDTA, 0.2% (w/v) bovine serum albumin in 100 mM HEPES/NaOH pH 7.0).
The resulting mixture was incubated 1 h at 22° C. to allow the formation of complex between the phosphorylated biotinylated peptide and the detection reagents. Subsequently the amount of phosphorylated substrate was evaluated by measurement of the resonance energy transfer from the Eu-chelate to the streptavidine-XL. Therefore, the fluorescence emissions at 620 nm and 665 nm after excitation at 350 nm was measured in a TR-FRET reader, e.g. a Rubystar (BMG Labtechnologies, Offenburg, Germany) or a Viewlux (Perkin-Elmer). The ratio of the emissions at 665 nm and at […] was taken as the measure for the amount of phosphorylated substrate. The data were normalised (enzyme reaction without inhibitor=0% inhibition, all other assay components but no enzyme=100% inhibition).
Background: TR-FRET usually uses a lanthanide donor and a delayed reading to cut background.
On to `Cc1nsc(Nc2cnc(C(F)(F)F)cn2)c1C(=O)Nc1ccc(O[C@H]2CCN(CC(F)(F)F)C[C@H]2F)nc1` [Example 145, N-(6-{[(3R,4S)-3-fluoro-1-(2,2,2-trifluoroethyl)piperidin-4-yl]oxy}pyridin-3-yl)-3-methyl-5-{[5-(trifluoromethyl)pyrazin-2-yl]amino}-1,2-thiazole-4-carboxamide], for which the IC50 was more than 20 µM.
For `Cc1nsc(Nc2cnc(C(F)(F)F)cn2)c1C(=O)Nc1ccc(O[C@H]2CCN(CCC(F)(F)F)C[C@H]2F)nc1` [Example 146, N-(6-{[(3R,4S)-3-fluoro-1-(3,3,3-trifluoropropyl)piperidin-4-yl]oxy}pyridin-3-yl)-3-methyl-5-{[5-(trifluoromethyl)pyrazin-2-yl]amino}-1,2-thiazole-4-carboxamide] the value was more than 20 µM.
On to `CCCN1CC[C@H](Oc2ccc(NC(=O)c3c(C)nsc3Nc3cnc(C(F)(F)F)cn3)cn2)[C@H](F)C1` [Example 147, N-(6-{[(3R,4S)-3-fluoro-1-propylpiperidin-4-yl]oxy}pyridin-3-yl)-3-methyl-5-{[5-(trifluoromethyl)pyrazin-2-yl]amino}-1,2-thiazole-4-carboxamide], for which the IC50 is more than 20 µM.
For `CCCCN1CC[C@H](Oc2ccc(NC(=O)c3c(C)nsc3Nc3cnc(C(F)(F)F)cn3)cn2)[C@H](F)C1` [Example 148, N-(6-{[(3R,4S)-1-butyl-3-fluoropiperidin-4-yl]oxy}pyridin-3-yl)-3-methyl-5-{[5-(trifluoromethyl)pyrazin-2-yl]amino}-1,2-thiazole-4-carboxamide] the value was more than 20 µM.
As for `Cc1nsc(Nc2cnc3cc(F)ccc3n2)c1C(=O)Nc1ccc(S(N)(=O)=O)cc1` [Example 149, 5-[(6-fluoroquinoxalin-2-yl)amino]-3-methyl-N-(4-sulfamoylphenyl)-1,2-thiazole-4-carboxamide], the IC50 is more than 20 µM.
For `Cc1nsc(Nc2ccc(C#N)cn2)c1C(=O)Nc1cccc(S(C)(=O)=O)c1` [Example 150, 5-[(5-cyanopyridin-2-yl)amino]-3-methyl-N-[3-(methylsulfonyl)phenyl]-1,2-thiazole-4-carboxamide] the value was more than 20 µM; for `Cc1nsc(Nc2cnc(C(F)(F)F)cn2)c1C(=O)Nc1ccc(F)c(C(N)=O)c1` [Example 151, N-(3-carbamoyl-4-fluorophenyl)-3-methyl-5-{[5-(trifluoromethyl)pyrazin-2-yl]amino}-1,2-thiazole-4-carboxamide], more than 20 µM.
For `CC(=O)Nc1cc(NC(=O)c2c(C)nsc2Nc2ccc(C#N)cn2)ccc1F` [Example 152, N-(3-acetamido-4-fluorophenyl)-5-[(5-cyanopyridin-2-yl)amino]-3-methyl-1,2-thiazole-4-carboxamide] the value was more than 20 µM; for `Cc1nsc(Nc2cnc(C(F)(F)F)cn2)c1C(=O)Nc1ccc(C(=O)NCCN2CCCC(F)(F)C2)cc1` [Example 153, N-(4-{[2-(3,3-difluoropiperidin-1-yl)ethyl]carbamoyl}phenyl)-3-methyl-5-{[5-(trifluoromethyl)pyrazin-2-yl]amino}-1,2-thiazole-4-carboxamide], more than 20 µM.
In the case of `Cc1nsc(Nc2cnc(C(F)(F)F)cn2)c1C(=O)Nc1ccc(C(=O)N2CCN(CC(F)F)CC2)cc1` [Example 154, N-(4-{[4-(2,2-difluoroethyl)piperazin-1-yl]carbonyl}phenyl)-3-methyl-5-{[5-(trifluoromethyl)pyrazin-2-yl]amino}-1,2-thiazole-4-carboxamide] it was more than 20 µM; in that of `Cc1nsc(Nc2cncc(C(F)(F)F)n2)c1C(=O)Nc1ccc(C(=O)NCCN2CCCC(F)C2)cc1` (centres unmarked) [Example 155, N-(4-{[2-(3-fluoropiperidin-1-yl)ethyl]carbamoyl}phenyl)-3-methyl-5-{[6-(trifluoromethyl)pyrazin-2-yl]amino}-1,2-thiazole-4-carboxamide], 4.1 µM; in that of `Cc1nsc(Nc2cnc3ccccc3n2)c1C(=O)Nc1ccc(C(=O)NCCN2CCCC(F)(F)C2)cc1` [Example 156, N-(4-{[2-(3,3-difluoropiperidin-1-yl)ethyl]carbamoyl}phenyl)-3-methyl-5-(quinoxalin-2-ylamino)-1,2-thiazole-4-carboxamide], more than 20 µM.
Regarding `Cc1nsc(Nc2cnc3ccccc3n2)c1C(=O)Nc1ccc(C(=O)N2CCN(CC(F)F)CC2)cc1` [Example 157, N-(4-{[4-(2,2-difluoroethyl)piperazin-1-yl]carbonyl}phenyl)-3-methyl-5-(quinoxalin-2-ylamino)-1,2-thiazole-4-carboxamide], the IC50 is more than 20 µM.
For `Cc1nsc(Nc2cnc3ccccc3n2)c1C(=O)Nc1ccc(C(=O)NC2CN(C(=O)OC(C)(C)C)CC(F)(F)C2)cc1` (centres unmarked) [Example 158, tert-butyl 3,3-difluoro-5-{[4-({[3-methyl-5-(quinoxalin-2-ylamino)-1,2-thiazol-4-yl]carbonyl}amino)benzoyl]amino} piperidine-1-carboxylate] the value was more than 20 µM.
On to `Cc1nsc(Nc2cnc3ccccc3n2)c1C(=O)Nc1ccc(C(=O)N2CCCN(CC(F)(F)F)CC2)cc1` [Example 159], for which the IC50 was more than 20 µM.
In the case of `Cc1nsc(Nc2cnc(C(F)(F)F)cn2)c1C(=O)Nc1ccc(OC2CCN(C(C)C)CC2)nc1` [Example 160, N-{6-[(1-isopropylpiperidin-4-yl)oxy]pyridin-3-yl}-3-methyl-5-{[5-(trifluoromethyl)pyrazin-2-yl]amino}-1,2-thiazole-4-carboxamide] it was more than 20 µM.
In the case of `Cc1nsc(Nc2cnc(C(F)(F)F)cn2)c1C(=O)Nc1ccc(OC2CCN(CCF)CC2)c(F)c1` [Example 162, N-(3-fluoro-4-{[1-(2-fluoroethyl)piperidin-4-yl]oxy}phenyl)-3-methyl-5-{[5-(trifluoromethyl)pyrazin-2-yl]amino}-1,2-thiazole-4-carboxamide] it was more than 20 µM; in that of `Cc1nsc(Nc2cnc(C(F)(F)F)cn2)c1C(=O)Nc1ccc(OC2CCN(CC(F)(F)F)CC2)c(F)c1` [Example 163, N-(3-fluoro-4-{[1-(2,2,2-trifluoroethyl)piperidin-4-yl]oxy}phenyl)-3-methyl-5-{[5-(trifluoromethyl)pyrazin-2-yl]amino}-1,2-thiazole-4-carboxamide], more than 20 µM.
For the molecule `Cc1nsc(Nc2cnc(C(F)(F)F)cn2)c1C(=O)Nc1ccc(OC2CCN(CC(F)F)CC2)c(F)c1` [Example 164, N-(4-{[1-(2,2-difluoroethyl)piperidin-4-yl]oxy}-3-fluorophenyl)-3-methyl-5-{[5-(trifluoromethyl)pyrazin-2-yl]amino}-1,2-thiazole-4-carboxamide], the IC50 was more than 20 µM.
For the molecule `Cc1nsc(Nc2cnc(C(F)(F)F)cn2)c1C(=O)Nc1ccc(C(=O)NC2CCN(CC(F)(F)F)CC2)cc1` [Example 165, 3-methyl-N-(4-{[1-(2,2,2-trifluoroethyl)piperidin-4-yl]carbamoyl}phenyl)-5-{[5-(trifluoromethyl)pyrazin-2-yl]amino}-1,2-thiazole-4-carboxamide], the IC50 was more than 20 µM.
For `Cc1nsc(Nc2cncc(C(F)(F)F)n2)c1C(=O)Nc1ccc(OCC2CCCN(C(=O)OC(C)(C)C)C2)nc1` (centres unmarked) [Example 166, tert-butyl 3-{[(5-{[(3-methyl-5-{[6-(trifluoromethyl)pyrazin-2-yl]amino}-1,2-thiazol-4-yl)carbonyl]amino}pyridin-2-yl)oxy]methyl}piperidine-1-carboxylate] the value was more than 20 µM; for `Cc1nsc(Nc2cncc(C(F)(F)F)n2)c1C(=O)Nc1ccc(C(=O)NC2CCN(CC(F)(F)F)CC2)cc1` [Example 167, 3-methyl-N-(4-{[1-(2,2,2-trifluoroethyl)piperidin-4-yl]carbamoyl}phenyl)-5-{[6-(trifluoromethyl)pyrazin-2-yl]amino}-1,2-thiazole-4-carboxamide], more than 20 µM; for `Cc1nsc(Nc2cncc(C(F)(F)F)n2)c1C(=O)Nc1ccc(F)c(OC2CCN(C(=O)OC(C)(C)C)CC2)c1` [Example 168, tert-butyl 4-(2-fluoro-5-{[(3-methyl-5-{[6-(trifluoromethyl)pyrazin-2-yl]amino}-1,2-thiazol-4-yl)carbonyl]amino}phenoxy)piperidine-1-carboxylate], more than 20 µM.
